Laboratory results: paper PMC5513091, “A novel Alzheimer’s disease drug candidate targeting inflammation and fatty acid metabolism” (Alzheimer's Research & Therapy, 2017)

System: Primary embryonic day 18 cortical cells
Test: Trophic factor withdrawal assay
Type: cell-based
Conditions: Cortical neurone; Cortical neuron; cell viability; read-out: Half-maximal effective concentration, Trophic factor withdrawal
Description: The various phenotypic screening assays were conducted as previously described. Briefly, HT-22, primary cortical neurons, or MC65 was plated and exposed to the different environmental stresses. Cells were treated with varying concentrations of CAD-31, and half-maximal effective concentration (EC50) was determined on the basis of cell viability.
• An assay that mimics the dramatic loss of neurotrophic support in the old brain is the trophic factor withdrawal assay. Primary embryonic day 18 cortical cells are plated at low density in serum-free medium. At low density, the cells die within 2 days; they can be rescued by combinations of neurotrophic growth factors, but not by one alone ([19] and unpublished data). […] BDNF is a molecule that is also involved in promoting memory and neurogenesis and is reduced in the brain with age and in AD, as well as in other neurological disorders. BDNF has long been considered a drug target for AD [23]. […] A reduction in GSH is a common denominator of old age and essentially all chronic central nervous system (CNS) diseases. J147 and CAD-31 both effectively reduce oxidative stress, with EC50 of 6 nM and 20 nM, respectively. • CAD-31 also prevents loss of energy metabolism that leads to neuron cell death in an in vitro ischemia model. […]

Structure (SMILES): Cc1ccc(N(/N=C/c2cccc(OC(F)(F)F)c2)C(=O)C(F)(F)F)c(C)c1 [CAD-31]
- EC50: 0.018 µM
